{"source": "patent US20220062299A1", "about": "“USE OF GLUCOCORTICOID STEROIDS IN PREVENTING AND TREATING CONDITIONS OF MUSCLE WASTING, AGING AND METABOLIC DISORDER” (NORTHWESTERN UNIVERSITY, priority 2018, published 2022)", "key": {"[1]": {"test_system": "quadriceps muscle of mdx mice", "assay": "Tissue respirometry on quadriceps muscle", "format": "in vivo, mouse", "conditions": "weekly prednisone, opposite to daily dosing", "procedure": "Tissue respirometry. Whole-tissue analysis of basal rates of oxygen consumption (OCR) and extracellular acidification (ECAR) was conducted adapting reported conditions for intact muscle tissue analysis (Shintaku and Guttridge, 2016) to the XF96 Extracellular Flux Analyzer platform (Agilent, Santa Clara, Calif.). Immediately after mouse sacrification, target muscle (quadriceps) tissues were quickly collected, rinsed in clean PBS buffer and dissected into approximately 2×2×2 mm pieces. At least three biopsies were sampled for each tissue. […] Respirometry analysis was then performed on equilibrated tissue biopsies using the following protocol for each basal or post-injection read: 3 min mix, 5 min delay, 2 min measure. Basal rate reads were collected for 6 consecutive times, then drugs were injected and control reads gathered for additional 3 consecutive times. […] Compound concentrations were determined on literature and/or preliminary test assays on wildtype muscle biopsies, and the concentration of the compound when loaded in the cartridge port was 10× in appropriate solvent (typically DMSO or ddH2O). OCR/ECAR reads were averaged for same tissue replicates and subtracted of background noise values (empty wells with only medium and appropriate compound). […]"}, "[2]": {"test_system": "isolated dystrophic myofibers", "assay": "2-NBDG uptake assay in live myofibers", "format": "in vivo, mouse", "conditions": "mdx mice; weekly prednisone", "procedure": "2-NBDG uptake assay and glycemia/lactate monitoring. 2-NBDG uptake assay in live myofibers was conducted adapting previously reported conditions (Zou et al., 2005). FDB muscles were collected and carefully treated with collagenase type II and hand pipetting to liberate single myofibers, following reported procedures (Demonbreun and McNally, 2015). Myofibers from two FDB muscles were collected in 1 ml Ringer's solution (for 1 l, 7.2 g NaCl, 0.17 g CaCl2, 0.37 g KCl; pH, 7.4). 200 μl of myofiber suspension were dispensed per well of chambered coverglass (#155382; Thermo Fisher, Waltham, Mass.) and imaged as baseline condition for both transmitted light (1 ms integration) and green fluorescent channels (100 ms integration) at the Zeiss Axio Observer A1 microscope, using 20× short-range objective and the ZEN 2 software (version 2011; Zeiss, Jena, Germany). […] 2-NBDG uptake was quantitated as relative fluorescent units, calculated as intra-myofiber fluorescence after incubation subtracted of average baseline fluorescence. Fluorescence intensity was quantitated through serial analysis of acquired images (3 areas of approximately 85 μm^2 were analyzed for average fluorescence value per myofiber; >10 myofibers were analyzed per mouse) with ImageJ software (Schneider et al., 2012). […]"}}}
{"molecule": "C[C@]12C=CC(=O)C=C1CC[C@@H]1[C@@H]2C(=O)C[C@@]2(C)[C@H]1CC[C@]2(O)C(=O)CO", "note": "[prednisone, Prednisone]", "values": [{"measurement": "glucose-fueled lactate production", "setting": "[1]", "result": "improved"}, {"measurement": "valine-fueled oxygen consumption", "setting": "[1]", "result": "improved"}, {"measurement": "myogenic glucose uptake (2-NBDG in isolated myofibers)", "setting": "[2]", "result": "enhanced"}]}
